Measured values as given in US20260103455A1, “ULK3 INHIBITORS AND USES THEREOF” (H. LEE MOFFITT CANCER CENTER AND RESEARCH INSTITUTE, INC., priority 2022, published 2026).
“And” between values parts separate entries of the source, which are not always exact repeats. Equal entries are not always repeated.

Tests used:
[1] = biological target: T1, ULK3 (Homo sapiens, UniProt Q6PHR2); test: DSF (ULK3) thermal shift; format: binding
T1 sequence (Q6PHR2 1-472): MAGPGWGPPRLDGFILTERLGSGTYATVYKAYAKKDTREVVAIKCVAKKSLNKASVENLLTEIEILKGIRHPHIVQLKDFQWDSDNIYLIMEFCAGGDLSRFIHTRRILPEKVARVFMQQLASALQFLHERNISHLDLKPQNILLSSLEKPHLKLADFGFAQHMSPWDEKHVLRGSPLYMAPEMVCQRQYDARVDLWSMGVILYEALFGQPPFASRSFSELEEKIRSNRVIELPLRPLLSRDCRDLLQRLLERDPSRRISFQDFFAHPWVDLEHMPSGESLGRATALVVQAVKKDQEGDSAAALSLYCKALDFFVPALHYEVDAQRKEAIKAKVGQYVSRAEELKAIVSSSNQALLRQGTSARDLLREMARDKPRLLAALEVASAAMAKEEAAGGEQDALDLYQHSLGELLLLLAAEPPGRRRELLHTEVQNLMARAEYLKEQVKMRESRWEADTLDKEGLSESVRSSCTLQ

[2] = biological target: JAK2 (Homo sapiens, UniProt O60674); test: DSF (JAK2) thermal shift; format: binding
JAK2, sequence (O60674 whole entry): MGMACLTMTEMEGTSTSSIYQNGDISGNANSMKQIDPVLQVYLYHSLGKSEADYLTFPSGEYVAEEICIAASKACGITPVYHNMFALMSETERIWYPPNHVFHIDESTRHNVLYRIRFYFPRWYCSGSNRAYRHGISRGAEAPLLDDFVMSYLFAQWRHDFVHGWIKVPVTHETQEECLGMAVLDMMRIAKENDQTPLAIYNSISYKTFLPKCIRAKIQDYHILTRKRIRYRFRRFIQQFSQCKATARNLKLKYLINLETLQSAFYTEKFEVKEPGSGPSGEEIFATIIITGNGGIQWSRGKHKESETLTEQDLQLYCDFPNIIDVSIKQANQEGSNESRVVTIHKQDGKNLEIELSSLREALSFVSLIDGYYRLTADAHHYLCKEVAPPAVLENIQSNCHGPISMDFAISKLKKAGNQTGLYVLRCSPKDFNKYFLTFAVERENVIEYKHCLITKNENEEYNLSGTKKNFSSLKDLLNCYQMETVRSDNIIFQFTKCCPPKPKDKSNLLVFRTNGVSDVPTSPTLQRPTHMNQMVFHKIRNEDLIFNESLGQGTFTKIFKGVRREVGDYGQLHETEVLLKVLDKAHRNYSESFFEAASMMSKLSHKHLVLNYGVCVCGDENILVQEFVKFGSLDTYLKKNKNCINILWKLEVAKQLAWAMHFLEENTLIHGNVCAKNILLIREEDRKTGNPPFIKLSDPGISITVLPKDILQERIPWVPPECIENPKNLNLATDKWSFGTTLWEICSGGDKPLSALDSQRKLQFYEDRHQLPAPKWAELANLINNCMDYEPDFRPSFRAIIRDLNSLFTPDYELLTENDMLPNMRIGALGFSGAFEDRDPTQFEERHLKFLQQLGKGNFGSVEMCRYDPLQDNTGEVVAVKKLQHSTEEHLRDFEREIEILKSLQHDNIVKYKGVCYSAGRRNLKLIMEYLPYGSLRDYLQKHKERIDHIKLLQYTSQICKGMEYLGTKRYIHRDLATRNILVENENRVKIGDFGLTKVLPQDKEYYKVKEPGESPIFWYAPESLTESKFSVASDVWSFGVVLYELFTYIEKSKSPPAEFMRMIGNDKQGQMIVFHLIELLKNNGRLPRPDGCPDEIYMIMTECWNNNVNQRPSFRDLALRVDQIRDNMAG

Molecule | DSF (ULK3) ΔTm (° C.) [1] | DSF (JAK2) ΔTm (° C.) [2] [°C]
2-Fluoro-N-methyl-4-((4-(4-((2,2,2-trifluoroethyl)carbamoyl)phenyl)pyrimidin-2-yl) amino)benzamide [BH1-106] | 9.9 °C | 0.54
Cc1cnc(Nc2ccc(CN3CCN(C)CC3)cc2)nc1-c1ccc(C(=O)NCC#N)cc1 [BH1-102] | 7.2 °C | 4.68
COC(=O)c1ccc(Nc2nccc(-c3ccc(C(=O)NCC(F)(F)F)cc3)n2)cc1F [BH1-104, Methyl 2-fluoro-4-((4-(4-((2,2,2-trifluoroethyl)carbamoyl)phenyl)pyrimidin-2-yl)amino)benzoate] | 6.9 °C | 0.05
COc1cc(N2CCOCC2)ccc1Nc1nccc(-c2ccc(C(=O)NCC(F)(F)F)cc2)n1 [BH1-132, 4-(2-((2-Methoxy-4-morpholinophenyl)amino)pyrimidin-4-yl)-N-(2,2,2-trifluoroethyl)benzamide] | 10.0 °C | 0.1
O=C(NCC(F)(F)F)c1ccc(-c2ccnc(Nc3ccc(N4CCOCC4)c(F)c3)n2)cc1 [BH1-138, 4-(2-((3-Fluoro-4-morpholinophenyl)amino)pyrimidin-4-yl)-N-(2,2,2-trifluoroethyl)benzamide] |  | 0.5
N#CCNC(=O)c1ccc(-c2ncnc3[nH]ccc23)cc1 [BL4-136] | 5.1 °C | 1
N#CCNC(=O)c1ccc(-c2nc(Nc3ccc(N4CCOCC4=O)cc3)ncc2F)cc1 [GM1-036BA2, N-(Cyanomethyl)-4-(5-fluoro-2-((4-(3-oxomorpholino)phenyl)amino)pyrimidin-4-yl)benzamide] | 8.7 °C | 1.1
CS(=O)(=O)O.Cc1cnc(Nc2ccc(C3CCN(C)CC3)c(F)c2)nc1Nc1ccc(Cl)c(NS(=O)(=O)C(C)(C)C)c1 [MA9-060, reference compound] | 11.9 °C and 12.6 °C | 
CN1CCC(c2cnc(Nc3nc(-c4ccc(C(=O)NCC#N)cc4)c4cc[nH]c4n3)cc2F)CC1 [RF1-058, N-(Cyanomethyl)-4-(2-((4-fluoro-5-(1-methylpiperidin-4-yl)pyridin-2-yl)amino)-7H-pyrrolo-[2,3-d]pyrimidin-4-yl)benzamide] | 6.8 °C | 
Cc1cnc(Nc2ccc(C(=O)NC3CCN(C)CC3)c(F)c2)nc1Nc1ccc(Cl)c(NS(=O)(=O)C(C)(C)C)c1 [SG3-179, reference compound] | 10.6 °C | 

Second part, the molecule after the results:

DSF (ULK3) ΔTm (° C.) [1] | DSF (JAK2) ΔTm (° C.) [2] [°C] | Molecule
7.9 °C | 3.6 | CC(C)[C@H](CO)NC(=O)c1ccc(-c2ccnc(Nc3ccc(N4CCOCC4)cc3)n2)cc1 [BH1-063, (R)—N-(1-Hydroxy-3-methylbutan-2-yl)-4-(2-((4-morpholinophenyl)amino)pyrimidin-4-yl)benzamide]
7.5 °C | 1.3 | N#CCNC(=O)c1ccc(-c2ccnc(Nc3ccc(N4CCOCC4=O)cc3)n2)cc1 [BH1-090, N-(Cyanomethyl)-4-(2-((4-(3-oxomorpholino)phenyl)amino)pyrimidin-4-yl)benzamide]
5.8 °C | 0.1 | COC[C@H](Cc1ccccc1)NC(=O)c1ccc(-c2ccnc(Nc3ccc(N4CCOCC4)cc3)n2)cc1 [BR1-012]
8.1 °C | 5.5 | Cc1cnc(Nc2ccc(N3CCOCC3=O)cc2)nc1-c1ccc(C(=O)NCC#N)cc1 [GM1-030, N-(Cyanomethyl)-4-(5-methyl-2-((4-(3-oxomorpholino)phenyl)amino)pyrimidin-4-yl)benzamide]
11.8 °C |  | N#CCNC(=O)c1ccc(-c2nc(Nc3ccc(N4CCOCC4=O)cc3)ncc2Cl)cc1 [GM1-072, 4-(5-Chloro-2-((4-(3-oxomorpholino)phenyl)amino)pyrimidin-4-yl)-N-(cyanomethyl)benzamide]
14.3 °C and 10.6 °C and 13.2 °C |  | N#CCNC(=O)c1ccc(-c2ccnc(Nc3ccc(N4CCOCC4)cc3)n2)cc1 [Momelotinib (BL4-106), Momelotinib, reference compound]
